Measurements from a melting point compilation (Tetko et al.; mined from patent text by program, amines drawn as free bases though some values may be those of a salt).

`Cc1c(SCCCN2CCOCC2)ccnc1CSc1nc2ccccc2[nH]1` gave a melting point of 149 to 150 °C.
With `CCSc1cc2c(cc1OC)CCn1c-2cc2c1C(=O)N(C(C)(C)C)CCCC2` the melting point was 124 to 125 °C.
With `CCCOc1ccc(NC(C)=O)cc1C1=NC(=O)C2=NC=NC2=N1` the melting point was 320 to 323 °C.
In the case of `Cn1ncnc1COc1nn2c(-c3ccccc3Cl)nncc2c1-c1ccccc1F`, the melting point was 155 to 157 °C.
Compound `CC#CCn1nnc2cc3c(=O)n(C(C)Cn4ncnn4)nnc3cc2c1=O` (stereo unspecified) has a melting point of 132 to 134 °C.
With `CCOC(=O)C(C(=O)OCC)C(=O)C(C)Oc1cc(Cl)c(Cl)cc1Cl` (stereo unspecified) the melting point was 62 to 66 °C.
Work on `CCN(CC)C(=O)NC1CC2c3cccc4[nH]c(C(=O)OCc5ccccc5)c(c34)CC2N(C)C1` (stereo unspecified) yielded a melting point of 226 to 229 °C.
For `CC(=O)c1cc(C(C)(C)C)cc(Br)c1O`, the melting point was 98 to 98.5 °C.
Compound `CCOP(=O)(OCC)Oc1cc(C(C)C)c(NC(=O)CN2CCN(CCSc3nc4ccccc4o3)CC2)c(C(C)C)c1` has a melting point of 108 to 109 °C.
With `NC(=O)[C@@H]1[C@H](NC(=O)/C(=N\OCC(=O)OCc2ccc([N+](=O)[O-])cc2)c2csc(NC(=O)CCl)n2)C(=O)N1OCC(=O)OCc1ccc([N+](=O)[O-])cc1` the melting point was 147 to 153 °C.
For `COc1cccc(OC)c1-c1cc(C(=O)NC2(C(=O)O)C3CC4CC(C3)CC2C4)nn1-c1ccnc2cc(Cl)ccc12` (stereo unspecified), the melting point was > 260 °C.
`CCCCc1nc(Cl)c(CC(=O)OCC)c(Cc2ccc(-c3ccccc3C#N)cc2)n1` gave a melting point of 66 °C.
For `CO[C@@H](C(=O)N[C@H]1CC[C@@H](OC(=O)C2CCCCCC2)CNC1=O)[C@H](O)[C@@H](O)[C@H](O)/C=C/C(C)(C)C`, the melting point was 84 to 86 °C.
In the case of `CC(C)(C)C1c2ccccc2-c2ccccc2N1S(=O)(=O)c1ccc(O)cc1` (stereo unspecified), the melting point was 187 to 189 °C.
Compound `NC(CN1C(=O)C2(COc3cc4c(cc32)OCO4)c2c(Cl)cccc21)=NO` (stereo unspecified) has a melting point of 180 to 185 °C.
`CCCN(CCC)Cc1nc(-c2ncn3c2[C@@H]2CCN2C(=O)c2c(Cl)cccc2-3)no1` showed a melting point of 147 to 153 °C.
Work on `CC1Cc2ccc(Br)cc2C(c2ccc([N+](=O)[O-])cc2)O1` (stereo unspecified) yielded a melting point of 130 to 133 °C.
Work on `CC1=NC=CC(C)(c2c(F)cc3c(=O)c(C(=O)O)cn4c3c2OCC4C)C1` (stereo unspecified) yielded a melting point of 308 to 312 °C.
Work on `CCCc1nc2c(N)nc3cc(OCC(=O)N4CCOCC4)ccc3c2s1` yielded a melting point of 200 to 203 °C.
With `C[C@H](Cc1c[nH]c2c(OCc3ccccc3)cccc12)NC(=O)OC(C)(C)C` the melting point was 94 to 95 °C.
Work on `O=C(O)c1ccsc1-c1sccc1C(=O)O` yielded a melting point of 194 to 198 °C.
Work on `Cc1oc(-c2ccc(F)cc2)nc1COc1cccc2cc(NS(=O)(=O)C(F)(F)F)ccc12` yielded a melting point of 178 to 180 °C.
Compound `CCOC(=O)C(Cc1ccc(C(F)(F)F)cc1)C(=O)c1cccc(F)c1` (stereo unspecified) has a melting point of 50 to 51 °C.
For `COc1ccc2cc(I)sc2c1`, the melting point was 75 to 77 °C.
`Cc1sc(C(N)=O)c2c1-c1c(cnn1Cc1ccccc1)CC2` showed a melting point of 205 to 206 °C.
In the case of `CCOC(=O)C1=C(C)NC(C)=C(C(=O)OCC)C1c1ccccc1/C=C/c1ccccc1`, the melting point was 187 to 188 °C.
Work on `CC1=CC(c2cccc(Cl)c2)C(c2cccs2)=NN1` (stereo unspecified) yielded a melting point of 109 °C.
With `O=S(=O)(Cl)Cc1csc(-c2ccc(Cl)c(Cl)c2)n1` the melting point was 124 to 127 °C.
Compound `COc1ccc(C2CCc3cc(OC)ccc3C2CCO)cc1` (stereo unspecified) has a melting point of 95 °C.
With `COC(=O)c1ccc(C(=O)c2cccc3ccccc23)n1C` the melting point was 80 °C.
`NC(=O)c1c(-c2cccc(F)c2)c(Cl)n2c1CN(C(=O)N[C@H]1CC[C@H](O)CC1)CC2` gave a melting point of 251 to 253 °C.
With `Cc1c(C2CCCCC2)nn(C)c1C1CCCCC1` the melting point was 120 to 122 °C.
In the case of `COc1ccccc1N(CC1OCCO1)C(=O)c1ccc(CCl)cc1`, the melting point was 126 to 129 °C.
`CCCN(CCC)C1Cc2c(C(C)=O)ccc3c2C(CN3)C1` (single isomer, unassigned; (+)) showed a melting point of 76 to 77 °C.
Compound `CN1CCN(c2ccc3cn[nH]c3n2)CC1` has a melting point of 196 to 197 °C.
`COc1ccc(CN2C(=O)C3(COc4cc(F)c(C#N)cc43)c3ccccc32)cc1` (stereo unspecified) showed a melting point of 142 to 143 °C.
Compound `CC(C)Cn1cc2c(O)nc(O)nc2n1` has a melting point of 328 to 330 °C.
Compound `O=C(Nc1ccc2[nH]c(=O)sc2c1)C(=O)N1CCC(Cc2ccc(F)cc2)CC1` has a melting point of 224 to 226 °C.
`CCC1(CO)CCCN2CCc3c([nH]c4ccccc34)C21` (stereo unspecified) gave a melting point of 230 to 233 °C.
In the case of `CC1=C(C(=O)c2ccc3c(c2)CCN(C(N)=O)C3)C(C)(C)CC1`, the melting point was 40.1 to 41.4 °C.
Work on `CCOCc1nc2c(N)nc3cc(-c4cccnc4)ccc3c2n1C[C@@H]1COC(C)(C)O1` yielded a melting point of 155 to 156 °C.
With `C=C(CC(=O)Nc1cc(Cl)cc(Cl)c1)C(=O)OCCCCCC` the melting point was 60 °C.
With `COC(=O)c1c(C)n(-c2ccccc2)c(C)c(C(=O)OC)c1=O` the melting point was 215 °C.
With `O=S(=O)(O)CCc1cccnc1` the melting point was 275 to 278 °C.
For `COC(=O)c1ccccc1S(=O)(=O)N1CCC[C@H]1C(=O)N[C@@H](Cc1ccccc1)C(=O)O`, the melting point was 163 to 165 °C.
`O=C(O)CCc1cccc(-c2nc(=O)c3ccccc3s2)c1` showed a melting point of 180 °C.
In the case of `Cc1nc2ccccc2n1-c1ccccc1`, the melting point was 46 to 48 °C.
`N#Cc1nn(-c2c(Cl)cc(C(F)(F)F)cc2Cl)cc1C=NO` gave a melting point of 170 °C.
For `CCCCCCCCCCCCCCCCCC(c1ccc(O)cc1)c1ccc(O)cc1`, the melting point was 88 to 90 °C.
`c1cc(NC2=NCCS2)c2occc2c1` gave a melting point of 143 to 145 °C.
`COC(=O)c1ccc2[nH]c(C#N)c(-c3ccccc3)c2c1` showed a melting point of 250 to 253 °C.
With `CCCn1c(=O)c2[nH]c(C(CO)Cc3ccccc3)nc2n(CCC)c1=O` (stereo unspecified) the melting point was 145 to 146 °C.
With `COC(C)=CC(=O)Nc1cccc([N+](=O)[O-])c1` the melting point was 187 °C.
`Cc1ccc(C)c2c1C[C@@H](O)[C@@H]2Oc1cc(C(=O)N(C)C)cc2c1nc(C)n2C` (relative stereo) showed a melting point of 134 °C.
In the case of `CC(C)CNc1nc(-c2ccccc2)cn2ccnc12`, the melting point was 81 °C.
In the case of `Nc1nc(-c2ccc(CCCCN3CCN(c4nsc5ccccc45)CC3)cc2)cs1`, the melting point was 258 to 261 °C.
`FC(F)(F)c1cccc(CSc2nnc(-c3ccc4ncccc4c3)o2)c1` gave a melting point of 158 to 159 °C.
In the case of `CNC(=S)NCc1nc(C(C)C)c(Sc2cc(Cl)cc(Cl)c2)n1C`, the melting point was 188 to 190 °C.
Work on `O=[N+]([O-])c1cccc(C=CC=Cc2ccccc2)c1` yielded a melting point of 144 °C.
In the case of `COCc1c(C(=O)OC(C)C)ncc2[nH]c3cccc(-c4cccnc4)c3c12`, the melting point was 187 to 188 °C.
For `O=C(COc1cc(-c2ccsc2)nc2ccccc12)N1CCOCC1`, the melting point was 183 °C.
`NC(=O)C1CCN(c2ncncc2Br)CC1` gave a melting point of 188 to 190 °C.
Compound `CCOC(=O)COc1c(OC)cc(Cl)c2c1CN1CCc3cc(OC)c(OCc4ccccc4)cc3C1C2` (stereo unspecified) has a melting point of 134 °C.
With `COC(=O)[C@]1(C)CCc2c(C)c(OCc3ccccc3)c(C)c(C)c2O1` the melting point was 102 to 106 °C.
`CCCCc1oc2ccccc2c1C(=O)N(CC)Cc1ccc2cc(OCc3nnn[nH]3)ccc2c1` showed a melting point of 78 to 84 °C.
In the case of `CC(C)(O)C(O)c1ccc(C(=O)CCC(=O)/C(=C/C2CCOCC2)c2ccc(S(=O)(=O)C3CC3)cc2)nc1` (stereo unspecified), the melting point was 102 to 104 °C.
`N[C@@H](Cc1ccc(C(F)(F)F)cc1)[C@H](O)c1ccncc1` (racemic) gave a melting point of 97 to 98 °C.
`COc1cccc([C@@]23CCC[C@@H]2C(=O)N(C)CCC3)c1` (relative stereo) gave a melting point of 96 to 99 °C.
Work on `CCOC(=O)N1C(=O)NC(=O)C12C(=O)N(Cc1ccc(Cl)c(Cl)c1)c1ccccc12` (stereo unspecified) yielded a melting point of 192 to 194 °C.
In the case of `N#Cc1c(N2CCc3ccccc3CC2)[nH]c(=S)[nH]c1=O`, the melting point was > 200 °C.
With `O=S1(=O)NC(C23CC4CC(CC(C4)C2)C3)Nc2c(Br)cc(Br)cc21` (stereo unspecified) the melting point was 270 to 273 °C.
`CCc1cccc2c(C=O)cc(Cl)c(O)c12` gave a melting point of 139 to 142 °C.
For `CC(=O)Nc1ccc2oc3c(OC(F)F)ccc(C(=O)Nc4c(Cl)cncc4Cl)c3c2c1`, the melting point was 234 °C.
Compound `CCOc1cc(C)ccc1C1CCN(CCCCNC(=O)c2ccc3oc(-c4ccc(Cl)cc4)cc3c2)CC1` has a melting point of 145 to 158 °C.
Compound `OCc1ccc2c(c1)C(C(Cl)(Cl)Cl)OC(C(Cl)(Cl)Cl)O2` (stereo unspecified) has a melting point of 134 to 136 °C.
`C=C(C)C(=O)OCCOc1ccc(/C=C/C(=O)OC)cc1` showed a melting point of 81 to 82 °C.
In the case of `COc1cccc(-c2ccc3c(c2)CC[C@H]2N(C)C(=O)CC[C@]32C)c1`, the melting point was 140 °C.
Compound `CCc1c(COC(C)=O)nc(-c2ccc(OC)c(OC)c2)c2cc(OC)c(OC)cc12` has a melting point of 129 to 131 °C.
`NC(=O)c1c(C(=O)O)cnn1-c1cccc(F)c1` showed a melting point of 215 to 216 °C.
Work on `COc1ccc(C2CC(=O)CC(c3ccc(OC)cc3)N2C)cc1` (stereo unspecified) yielded a melting point of 129 to 130 °C.
Compound `c1ccc(CSc2ccccc2Cn2cncn2)cc1` has a melting point of 65 to 68 °C.
With `CC(Cc1sc2ccc(Cl)cc2c1Cl)=NO` the melting point was 133 to 138 °C.
In the case of `O=C(O)COc1cc(Cl)ccc1C(=O)NCc1cc(F)cc(C(F)(F)F)c1`, the melting point was 160 to 162 °C.
Work on `CC(O)c1ccc(-c2ccc3c(c2)CC(C(=O)O)O3)cc1` (stereo unspecified) yielded a melting point of 155 to 157 °C.
`COC=C(C(=O)OC)n1ccc2ccc(-c3nccc(-c4ccccc4)n3)cc21` showed a melting point of 85 °C.
`COCCN(C)Cc1ccc(NC(=O)C2=Cc3cc(-c4ccc(C)cc4)ccc3OCC2)cc1` showed a melting point of 121 to 122 °C.
With `CCCc1cc(C(=O)NCc2ccccn2)ccc1OC(C(=O)NS(=O)(=O)c1ccc(C(C)C)cc1)c1ccc2c(c1)OCO2` (stereo unspecified) the melting point was 168 to 170 °C.
In the case of `c1ccc(COc2cccc3c2nc2n3CCCO2)cc1`, the melting point was 183 to 184 °C.
For `Cn1c(COc2ccc(CC3SC(=O)NC3=O)cc2)nc2ccc(Oc3ccc(NS(C)(=O)=O)cc3)cc21` (stereo unspecified), the melting point was 225 to 226 °C.
For `CC(=O)OC1CCC2C3CCC4=CC(=O)C=CC4(C)C3CCC12C` (stereo unspecified), the melting point was 165 °C.
`CC(=N)NS(=O)(=O)C=Cc1ccc(Cl)c(Cl)c1` showed a melting point of 198 °C.
In the case of `COc1ccc(C(=O)Nc2ccccc2)cc1NS(=O)(=O)c1ccccc1`, the melting point was 190 to 194 °C.
For `CCNC(=O)C(=O)[C@H](Cc1ccccc1)NC(=O)[C@H](CC(C)C)NC(=O)OC1CCOCC1`, the melting point was 140 to 142 °C.
In the case of `COc1cc(N)ccc1C(=O)NC1(C)CCN(CCCOc2ccc(F)cc2)CC1`, the melting point was 75.5 °C.
`CNC1([C@@H]2CCN(c3c(F)cc4c(=O)c(C(=O)O)cn([C@@H]5C[C@@H]5F)c4c3C)C2)CC1` gave a melting point of 211 to 212 °C.
Compound `Cc1ccc(CN2CCN(C3=NC4(C=CC(=O)C=C4)C(c4ccc(O)cc4)=C3)CC2)cc1` has a melting point of 140 °C.
